Legend:
[1] = tested on: serum antibodies of test subjects
[2] = tested on: serum antibodies of test subjects; details: serum of 8 persons

| Substance | comparison of the cyclic and linear peptide, reactivity with sera [1] | reaction with serum of test subject [1] | reactivity with sera of test subjects [1] | immune responses of serum antibodies against the peptides [2] |
| --- | --- | --- | --- | --- |
| Biotin-aminocaproyl-RPKVRDQ [Peptide 3C] | more reactive with low signals with other subjects | higher reaction | Strong responses were observed from the serum of test subjects S5B |  |
| Biotin-aminocaproyl-SRPRVRNIP [Peptide 2B] |  | high reaction | much weaker reactions | especially effective in binding with certain antibodies |
